Assay results reported in publication PMC8578629, “Photoactivated cell-killing amino-based flavylium compounds” (Scientific Reports, 2021).

What was measured:
[1] = Molar absorption coefficient (ɛ) at 630 nm; assay type: physicochemical
Experimental: The molar extinction coefficient or molar absorption (ɛ), of all synthesized pigments was determined in three different solvents (ethanol, methanol and DMSO). For each pigment, in each solvent, a range of concentrations was prepared and then the spectrum of each solution was read. Finally, the respective absorbances (collected at 630 nm) were represented as a function of concentration and the ɛ value was taken from the slope value of the equation curve.

[2] = Fluorescence quantum yield by the absolute method (integrating sphere); assay type: physicochemical; conditions: in DMSO
Experimental: Based on the absorbance maxima of the different compounds (Fig. S2), the measurement of the quantum yield (QY) of the synthesized flavylium derivatives was performed using a calibrated Quantaurus-QY stand-alone integrating sphere setup C11347-11 (Hamamatsu Photonics, Hamamatsu, Japan) equipped with an integration sphere, a monochromator, a spectrograph, a 150 W xenon light source and a silicon charge coupled device. Each compound was dissolved in DMSO and diluted to ensure an absorbance of 0.1 from the λmax of excitation forward. Each compound was then irradiated at the corresponding wavelength and the absolute quantum yield determined. The fluorescence spectra was also recorded (Fig. S3). For each compound, four independent experiments were performed.

HaCaT cells [3] = assay: Cellular uptake by HaCaT cells (overall uptake, adsorption/absorption ratio, kinetics); assay type: in vitro ADME, human; conditions: for Uptake amount, range over the initial concentrations: 4 h incubation, 6.25–100 μM; for % Uptake ± SEM: 4 h
Experimental: The cellular uptake of the different compounds by HaCaT cells was determined following the protocol: cells were seeded at a density of 4 × 10^4 cells/well onto 12-well plates (1060 μL per well) and after 24 h the compounds were added to the plates in different concentrations (6.25–100 μM; 1060 μL per well) and incubated for a period of 4 h at 37 °C in an atmosphere of 5% CO2 and in the presence of DMEM with 2% FBS. Then, the medium with the compounds was removed, cells are washed with PBS to remove any extracellular compounds and the same volume of DMSO (1060 µL) was added to cells. After 60 min in the dark, the plates were submitted to fluorescence determination. The fluorescence intensity of each well was then recorded at the different wavelength pairs specific for each tested compound (ex/em) in a FlexStation 3 Multi-Mode Microplate Reader. The fluorescence values were then used to plot into the corresponding calibration curves and the uptake amounts were determined. • Fl577/658 = 19.734 × Conc (7NEt24′NMe2), μM; Fl577/769 = 0.2869 × Conc (7NEt2st4′NMe2), μM; • Fl577/635 = 24.556 × Conc (7NEt24′NH2), μM; Fl577/635 = 42.851 × Conc (PpIX), μM;
The ratio between the absorption and surface adsorption by HaCaT for each compound was performed. Cells were seeded in the same conditions as previously stated. After 24 h, compounds were added to the plates at the concentration of 100 μM (1060 μL per well) and incubated for a period of 4 h at 37 °C in an atmosphere of 5% CO2 and in the presence of DMEM with 2% FBS. After incubation, the medium with the compounds was removed and Dulbecco’s phosphate buffer (DPBS) was added (1060 μL per well). The fluorescence intensity of each well was then determined at the different wavelength pairs specific for each tested compound (ex/em) using a FlexStation 3 Multi‐Mode Microplate Reader. After this, 300 μL of Trypan Blue was added ([…]) to each well and the fluorescence intensity was determined in the same conditions. Cells with DPBS and cells with DPBS + Trypan Blue were used as controls. • Fl577/658 = 19.734 × Conc (7NEt24′NMe2), μM; Fl577/769 = 0.2869 × Conc (7NEt2st4′NMe2), μM; • Fl577/635 = 24.556 × Conc (7NEt24′NH2), μM; Fl577/635 = 42.851 × Conc (PpIX), μM;
The cellular uptake kinetics of the different compounds by HaCaT cells was determined as follows: cells were seeded at a density of 4 × 10^4 cells/well onto 12-well plates (1060 μL per well) and after 24 h compounds were added to the plates at a concentration of 100 μM (1060 μL per well) and incubated for different time periods (15, 30, 60, 120, 180 and 240 min) at 37 °C in an atmosphere of 5% CO2 and in the presence of DMEM with 2% FBS. After each time period, the medium with the compounds was removed and DMSO was added to cells. After 60 min in the dark the plates were submitted to fluorescence determination. The fluorescence intensity of each well was then determined at the different wavelength pairs specific for each tested compound (ex/em) (FlexStation 3 Multi-Mode Microplate Reader). The fluorescence values were then used to plot into the corresponding calibration curves and the uptake amounts were determined.

HaCaT cells [4] = assay: Photodynamic therapy mechanism determination with type I/type II quenchers; assay type: cell-based, human; conditions: compound 50 μΜ, light 6.6 J cm^−2
Experimental: For the determination of the photoactivation mechanism that yielded to cell death, cells were seeded as previously described for the photoactivation assays. […] The incubation proceeded for a time period of 4 h. After this, solutions containing the compounds were removed from cells and fresh medium containing the different quenchers were added to cells. Cells were irradiated for 10 min at an intensity of 50%, at room temperature (making a total energy exposition of 6.6 J cm^−2). The dark treatment was done by placing the plates for 10 min in a dark box at room temperature. After this, the medium was removed and replaced by fresh medium without any additive. The 96 well plates were then placed in an incubator at 37 °C in an atmosphere of 5% CO2 for 24 h. Finally, the Alamar Blue assay was performed to determine cell survival as previously described.

HaCaT cells [5] = assay: Reactive oxygen species production (DCF-DA); assay type: cell-based, human; conditions: 25 μM, 6.6 J cm^−2, versus control cells
Experimental: Cells reactive oxygen species (ROS) production was evaluated following the standard method. Briefly, cells were seed at a density of 4 × 10^4 cells/mL onto 96 well plates and after 24 h the compounds were added at 25 μM (non-toxic concentration) and the same previous procedure for the photoactivation assays was followed. After that, cells were washed twice in Hank’s Buffered Saline Solution (HBSS) and incubated with 100 μL of 50 μM 2′,7′-dichlorodihydrofluorescein diacetate (DCF‐DA) for 30 min in the same previous conditions. For positive control, cells were treated with 100 μM H2O2 for 30 min prior to the addition of DCF-DA. Cells were then washed twice with HBSS and incubated with fresh DMEM medium for 24 h. After this period, the fluorescence intensity at […] (ex/em) was determined in a FlexStation 3 Multi-Mode Microplate Reader.

[6] = Maximum absorption wavelength of the flavylium cation; assay type: physicochemical; conditions: species adsorbed/absorbed in cells

Compound | Molar absorption coefficient ɛ at 630 nm ([1]; DMSO) | Molar absorption coefficient ɛ at 630 nm ([1]; Ethanol) | Molar absorption coefficient ɛ at 630 nm ([1]; Methanol) | Quantum yield of fluorescence (Φf), mean ± SD [2] [%] | Uptake amount, range over the initial concentrations (HaCaT cells [3]) | % Uptake ± SEM (HaCaT cells [3]; initial concentration 6.25 μM) [%] | % Uptake ± SEM (HaCaT cells [3]; initial concentration 12.5 μM) [%] | % Uptake ± SEM (HaCaT cells [3]; initial concentration 25 μM) [%] | % Uptake ± SEM (HaCaT cells [3]; initial concentration 50 μM) [%] | % Uptake ± SEM (HaCaT cells [3]; initial concentration 100 μM) [%] | Increase of cell survival with quencher (HaCaT cells [4]; D-mannitol 10 mM (type I)) [%] | Increase of cell survival with quencher (HaCaT cells [4]; L-cysteine 10 mM (type I)) [%] | Increase of cell survival with quencher (HaCaT cells [4]; L-histidine 10 mM (type II)) [%] | Increase of cell survival with quencher (HaCaT cells [4]; sodium azide 10 mM (type II)) [%] | ROS production upon white light irradiation (in words) (HaCaT cells [5]) | Maximum absorption wavelength of the flavylium cation [6] [nm]
CCN(CC)c1ccc2ccc(/C=C/c3ccc(N(C)C)cc3)[o+]c2c1 [7NEt2st4′NMe2, 7-(diethylamino)-2-(4′-dimethylaminostyryl)-benzopyrylium] | 15,728 M^−1 cm^−1 | 16,281 M^−1 cm^−1 | 22,749 M^−1 cm^−1 | 3.40 ± 0.17 | 3.564–5.830% | 4.448 ± 0.876 | 4.236 ± 0.628 | 3.564 ± 0.613 | 4.091 ± 0.552 | 5.830 ± 1.569 | 22 | 16 | 46 | 31 | positive modulation of ROS production | 672
CCN(CC)c1ccc2ccc(-c3ccc(N)cc3)[o+]c2c1 [7NEt24′NH2, 4′-amino-7-diethylamino-benzopyrylium] | 5687 M⁻¹ cm⁻¹ | 2225 M⁻¹ cm⁻¹ | 1682 M⁻¹ cm⁻¹ | – | 1.229–2.192% | 1.229 ± 0.296 | 1.828 ± 0.419 | 1.977 ± 0.581 | 2.192 ± 0.662 | 1.785 ± 0.383 | 14 | 27 | 33 | 31 | positive modulation of ROS production | 575
CCN(CC)c1ccc2ccc(-c3ccc(N(C)C)cc3)[o+]c2c1 [7NEt24′NMe2, 7-diethylamino-4′-dimethylamino-benzopyrylium] | 11,031 M^−1 cm^−1 | 10,725 M^−1 cm^−1 | 8,720 M^−1 cm^−1 | 5.83 ± 0.28 | 2.745–4.156% | 3.416 ± 0.629 | 4.156 ± 0.764 | 2.745 ± 0.504 | 3.660 ± 0.831 | 3.523 ± 0.695 | 6 | 13 | 44 | 27 | positive modulation of ROS production | 596
C=CC1=C(C)c2cc3[nH]c(cc4nc(cc5[nH]c(cc1n2)c(C)c5CCC(=O)O)C(CCC(=O)O)=C4C)c(C)c3C=C [PpIX, protoporphyrin IX, reference compound] | 3207 M⁻¹ cm⁻¹ | – | – | – | – | 0.694 ± 0.110 | 0.615 ± 0.050 | 0.508 ± 0.021 | 0.667 ± 0.040 | 0.659 ± 0.037 | 27 | 26 | 42 | 37 | no significant differences | –
